{"source": "paper PMC6269819", "about": "“Evaluation of the Biological Activity of Naturally Occurring 5,8-Dihydroxycoumarin” (Molecules, 2013)", "key": {"[1]": {"assay": "ABTS•+ radical cation decolorization assay", "settings": "16 min reaction", "description": "The experiments were carried out using a slightly modified 2,2’-azinobis (3-ethylbenzothiazoline-6-sulfonic acid) diammonium salt (ABTS, Sigma-Aldrich Chemie, Steinheim, Germany) decolorization assay. Stock solution of ABTS (2 mM) was prepared by dissolving in 50 mL of phosphate buffered saline (PBS) obtained by dissolving 0.27 g of KH2PO4 (Jansen Chimica, Beerse, Belgium), 1.42 g of Na2HPO4, 8.18 g of NaCl, and 0.15 g of KCl (Merck, Darmstadt, Germany) in 1 L of distilled water. The pH was adjusted to 7.4 using NaOH solution. The ABTS^•+ was produced by reacting 50 mL of ABTS stock solution with 200 μL of K2S2O8 solution. The ABTS^•+ solution was diluted with PBS before measurements to obtain the absorbance of 0.800 ± 0.030 at 734 nm. 5,8-DHC was dissolved in PBS at the concentrations of 0.0025, 0.005, 0.01, 0.025 and 0.05% before the reaction. A 3 mL aliquot of ABTS^•+ solution was mixed with 30 μL of 5,8-DHC solution in the 1 cm path length quartz cuvette. The absorbance was read at ambient temperature after 16 min. PBS solution was used as a blank. All determinations were carried out in triplicate. Radical scavenging capacity was expressed as in DPPH^• scavenging assay."}, "human lymphocytes [2]": {"test_system": "human lymphocytes", "assay": "Sister chromatid exchanges and replication index in human lymphocyte cultures in vitro", "assay_type": "cell-based", "description": "(§1) Blood samples were taken from two healthy female volunteers (donor A) and (donor B). Whole peripheral blood was grown in HEPES-buffered RPMI 1640 medium supplemented with 12% heat-inactivated newborn calf serum, 7.8 μg/mL phytohemagglutinin P, 50 μg/mL gentamycin, 10 μg/mL 5-bromo-2'-deoxyuridine. All reagents used for the cell culture were purchased from Sigma-Aldrich Chemical Co. (St. Louis, MO, USA). Cell cultures were incubated at 37 °C for 72 h. Treatment with test compounds was carried out 48 h after culture initiation and lasted for the period of 24 h. Dose range of 5,8-DHC (10 to 40 µg/mL) was based on pilot experiments (data not shown). As whole blood cultures display many properties common with the liver microsomal cytochrome P450 system, no external metabolising enzymes were added. 5,8-DHC was dissolved in ethanol and then diluted with RPMI 1640 medium to the desired concentration. Ethanol in a final concentration of 7.5µL/mL was used as a solvent control. […] Working solutions were made just before treatment. Two parallel cultures were used for each concentration of the compound tested. Two cultures were left untreated and served as a blank control. Methyl methanesulfonate (MMS) in a final concentration of 0.02 μL/mL was used as a positive control. The cultures were exposed to colchicine at a final concentration of 0.6 μg/mL for the last 3 h of incubation. The cells were harvested, hypotonically swollen in 0.075 M KCl and fixed in methanol: acetic acid (3:1). Air-dried slides were differentially stained by fluorescence plus Giemsa technique as has been described previously. Briefly, the slides were stained for 10 min. with 10 μg/mL of Hoechst 33258 dye (dissolved in 0.07 M Soerensen’s buffer, pH 6.8). Then the slides were rinsed, mounted with citrate buffer (pH 8.5), covered with cover slips and exposed to UV light (400 W mercury lamp at a distance of 15 cm) for 6–7 min. Slides were then rinsed and stained for 3–4 min. with 5% Giemsa. Cytogenetic analysis was performed on coded slides. No less than 100 first-mitotic division metaphases per culture were analysed for CAs, and no less than 50 second-division metaphases for SCEs.\nCell replicative kinetics were determined by means of a replicative index (RI = [M1 + 2M2 + 3M3]/N, where M1, M2, M3 are the numbers of cells that had undergone one, two or three cycles of replication, and N is a total number of cells scored). 300 cells were scored to determine RI"}, "human lymphocytes [3]": {"test_system": "human lymphocytes", "assay": "Chromosome aberrations in human lymphocyte cultures in vitro", "assay_type": "cell-based", "settings": "for CA per 100 cells (±S.E.M.): 24 h treatment, pooled two donors", "description": "as §1"}}, "note": "Marks after values point to notes of the source that are not given here.", "data": [{"molecule": "O=c1ccc2c(O)ccc(O)c2o1", "note": "[5,8-DHC, 5,8-Dihydroxycoumarin]", "values": [{"measurement": "IC50 in ABTS•+ reaction", "setting": "[1]", "value": 0.028, "unit": "%"}, {"measurement": "ratio of regression coefficients donor A / donor B", "setting": "human lymphocytes [2]", "value": 2.6, "unit": "times"}, {"measurement": "RI ± S.E.M", "setting": "human lymphocytes [2]; Donor A, 10 µg/mL", "value": "2.70 ± 0.04"}, {"measurement": "SCE/ cell ± S.E.M.", "setting": "human lymphocytes [2]; Donor A, 10 µg/mL", "value": "10.2 ± 0.5", "unit": "SCE/cell"}, {"measurement": "RI ± S.E.M", "setting": "human lymphocytes [2]; Donor A, 15 µg/mL", "value": "2.74 ± 0.31"}, {"measurement": "SCE/ cell ± S.E.M.", "setting": "human lymphocytes [2]; Donor A, 15 µg/mL", "value": "12.3 ± 0.6 ^b SCE/cell"}, {"measurement": "RI ± S.E.M", "setting": "human lymphocytes [2]; Donor A, 20 µg/mL", "value": "2.65 ± 0.04 ^b"}, {"measurement": "SCE/ cell ± S.E.M.", "setting": "human lymphocytes [2]; Donor A, 20 µg/mL", "value": "12.7 ± 0.7 ^b SCE/cell"}, {"measurement": "RI ± S.E.M", "setting": "human lymphocytes [2]; Donor A, 25 µg/mL", "value": "2.66 ± 0.04 ^b"}, {"measurement": "SCE/ cell ± S.E.M.", "setting": "human lymphocytes [2]; Donor A, 25 µg/mL", "value": "13.6 ± 0.6 ^b SCE/cell"}, {"measurement": "RI ± S.E.M", "setting": "human lymphocytes [2]; Donor A, 30 µg/mL", "value": "2.55 ± 0.05 ^b"}, {"measurement": "SCE/ cell ± S.E.M.", "setting": "human lymphocytes [2]; Donor A, 30 µg/mL", "value": "13.9 ± 0.6 ^b SCE/cell"}, {"measurement": "RI ± S.E.M", "setting": "human lymphocytes [2]; Donor A, 35 µg/mL", "value": "2.51 ± 0.05 ^b"}, {"measurement": "SCE/ cell ± S.E.M.", "setting": "human lymphocytes [2]; Donor A, 35 µg/mL", "value": "15.0 ± 0.8 ^b SCE/cell"}, {"measurement": "RI ± S.E.M", "setting": "human lymphocytes [2]; Donor A, 40 µg/mL", "value": "2.62 ± 0.04 ^b"}, {"measurement": "SCE/ cell ± S.E.M.", "setting": "human lymphocytes [2]; Donor A, 40 µg/mL", "value": "19.7 ± 1.5 ^b SCE/cell"}, {"measurement": "RI ± S.E.M", "setting": "human lymphocytes [2]; Donor B, 10 µg/mL", "value": "2.22 ± 0.05 ^b"}, {"measurement": "SCE/ cell ± S.E.M.", "setting": "human lymphocytes [2]; Donor B, 10 µg/mL", "value": "10.1 ± 0.5", "unit": "SCE/cell"}, {"measurement": "RI ± S.E.M", "setting": "human lymphocytes [2]; Donor B, 15 µg/mL", "value": "2.35 ± 0.05"}, {"measurement": "SCE/ cell ± S.E.M.", "setting": "human lymphocytes [2]; Donor B, 15 µg/mL", "value": "10.6 ± 0.5", "unit": "SCE/cell"}, {"measurement": "RI ± S.E.M", "setting": "human lymphocytes [2]; Donor B, 20 µg/mL", "value": "2.49 ± 0.05"}, {"measurement": "SCE/ cell ± S.E.M.", "setting": "human lymphocytes [2]; Donor B, 20 µg/mL", "value": "10.3 ± 0.4", "unit": "SCE/cell"}, {"measurement": "RI ± S.E.M", "setting": "human lymphocytes [2]; Donor B, 25 µg/mL", "value": "2.31 ± 0.05 ^b"}, {"measurement": "SCE/ cell ± S.E.M.", "setting": "human lymphocytes [2]; Donor B, 25 µg/mL", "value": "9.9 ± 0.5", "unit": "SCE/cell"}, {"measurement": "RI ± S.E.M", "setting": "human lymphocytes [2]; Donor B, 30 µg/mL", "value": "2.31 ± 0.06 ^b"}, {"measurement": "SCE/ cell ± S.E.M.", "setting": "human lymphocytes [2]; Donor B, 30 µg/mL", "value": "11.8 ± 0.5 ^b SCE/cell"}, {"measurement": "RI ± S.E.M", "setting": "human lymphocytes [2]; Donor B, 35 µg/mL", "value": "2.17 ± 0.06 ^b"}, {"measurement": "SCE/ cell ± S.E.M.", "setting": "human lymphocytes [2]; Donor B, 35 µg/mL", "value": "11.5 ± 0.6 ^b SCE/cell"}, {"measurement": "RI ± S.E.M", "setting": "human lymphocytes [2]; Donor B, 40 µg/mL", "value": "2.07 ± 0.06 ^b"}, {"measurement": "SCE/ cell ± S.E.M.", "setting": "human lymphocytes [2]; Donor B, 40 µg/mL", "value": "13.3 ± 0.6 ^b SCE/cell"}, {"measurement": "dose giving statistically significant increase in the frequency of SCEs", "setting": "human lymphocytes [2]; donor A", "value": 15, "unit": "µg/mL"}, {"measurement": "regression coefficient of SCE dose-response relationship", "setting": "human lymphocytes [2]; donor A", "value": 1.15}, {"measurement": "dose giving statistically significant increase in the frequency of SCEs", "setting": "human lymphocytes [2]; donor B", "value": "≥ 30", "unit": "µg/mL"}, {"measurement": "regression coefficient of SCE dose-response relationship", "setting": "human lymphocytes [2]; donor B", "value": 0.44}, {"measurement": "concentration consistently inhibiting cell replicative kinetics", "setting": "human lymphocytes [2]; lymphocytes of both donors", "value": "higher than 25 μg/mL"}, {"measurement": "CA per 100 cells (±S.E.M.)", "setting": "human lymphocytes [3]; 10 µg/mL", "value": "1.5 ± 0.9", "unit": "per 100 cells"}, {"measurement": "CA per 100 cells (±S.E.M.)", "setting": "human lymphocytes [3]; 15 µg/mL", "value": "3.0 ± 1.2", "unit": "per 100 cells"}, {"measurement": "CA per 100 cells (±S.E.M.)", "setting": "human lymphocytes [3]; 20 µg/mL", "value": "3.5 ± 1.3", "unit": "per 100 cells"}, {"measurement": "CA per 100 cells (±S.E.M.)", "setting": "human lymphocytes [3]; 25 µg/mL", "value": "6.5 ± 1.7", "unit": "per 100 cells"}, {"measurement": "CA per 100 cells (±S.E.M.)", "setting": "human lymphocytes [3]; 30 µg/mL", "value": "7.0 ± 1.8", "unit": "per 100 cells"}, {"measurement": "CA per 100 cells (±S.E.M.)", "setting": "human lymphocytes [3]; 35 µg/mL", "value": "7.0 ± 1.8", "unit": "per 100 cells"}, {"measurement": "CA per 100 cells (±S.E.M.)", "setting": "human lymphocytes [3]; 40 µg/mL", "value": "9.5 ± 2.1 ^b per 100 cells"}, {"measurement": "concentration giving statistically significant increase of CAs", "setting": "human lymphocytes [3]; highest concentration only", "value": 40000, "unit": "ng/mL"}]}]}
